Data taken from PubChem BioAssay (NCI).
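Grown in 96-well plates, cells were treated for 48 hours with each compound at five concentrations. Insufficient inhibition: endpoint recorded as highest concentration tested. GI50 is the concentration that inhibits growth by half. The concentration for full growth arrest is given as TGI.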

Experiments:
Assay in all cases: NCI anticancer screen, dose series, 48 h
[1] = tested on: 786-0 renal
[2] = tested on: HL-60(TB) leukemia
[3] = tested on: HOP-62 NSCLC
[4] = tested on: HT29 colon
[5] = tested on: NCI-H460 lung
[6] = tested on: OVCAR-3 ovarian
[7] = tested on: OVCAR-8 ovarian
[8] = tested on: RXF 393 renal
[9] = tested on: UACC-62 melanoma
[10] = tested on: BT-549 breast

Row | SMILES | TGI [1] | TGI [2] | TGI [3] | TGI [4] | TGI [5] | TGI [6] | TGI [7] | TGI [8] | TGI [9] | GI50 [1] | GI50 [10] | TGI [10] | GI50 [2] | GI50 [3] | GI50 [4] | GI50 [5] | GI50 [6] | GI50 [7] | GI50 [9] | GI50 [8]
1 | CCOC(=O)CCc1c(C)c2c(OC(C)=O)cc(OC(C)=O)cc2oc1=O | > 100 µM | > 100 µM | > 100 µM | > 100 µM | 91.1 µM | 83.3 µM | > 100 µM | 73.3 µM |  |  |  |  |  |  |  |  |  |  |  | 
2 | Cc1cc(C)n(CCNCCn2nc(C)cc2C)n1 | > 100 µM | > 100 µM | > 100 µM |  | > 100 µM | > 100 µM | > 100 µM | > 100 µM | > 100 µM |  |  |  |  |  |  |  |  |  |  | 
3 | CCN(CC)CCNCC(=O)Oc1ccc(/C=C/C(=O)CC(=O)/C=C/c2ccc(OC(=O)CNCCN(CC)CC)c(OC)c2)cc1OC | 5.93 µM | 91.8 µM | 12.8 µM | 6.02 µM | 22.2 µM | > 100 µM | 15 µM |  | 7.8 µM | 2.38 µM | 2.29 µM | 5.95 µM | 3.39 µM | 3.34 µM | 2.36 µM | 3.41 µM | 4.11 µM | 3.69 µM | 2.73 µM | 
4 | CN=NN(C)C(=O)NC | > 100 µM | > 100 µM | > 100 µM | > 100 µM | > 100 µM | > 100 µM | > 100 µM | > 100 µM | > 100 µM |  |  |  |  |  |  |  |  |  |  | 
5 | COc1cc(/C=C2\C(=O)Nc3ccc(F)cc32)cc(OC)c1OC | > 100 µM | > 100 µM | > 100 µM | > 100 µM | > 100 µM | > 100 µM | > 100 µM |  | > 100 µM | 31.2 µM | 22.7 µM | > 100 µM | 8.39 µM | 35.8 µM | 24.8 µM | 19.6 µM | 22.8 µM | 64.2 µM | 11.7 µM | 
6 | COC(=O)/C=C/C1C(C(=O)OC)C2(C(=O)OC)CCC1(C(=O)OC)N2 (stereo not drawn) | > 100 µM | > 100 µM | > 100 µM | > 100 µM | > 100 µM | > 100 µM | > 100 µM | > 100 µM | > 100 µM |  |  |  |  |  |  |  |  |  |  | 
7 | CCCCCCCCCc1cc(=O)c2c(O)cccc2o1 | > 100 µM | 93.9 µM | > 100 µM | > 10 µM | > 100 µM | > 100 µM | > 100 µM | > 100 µM | > 100 µM |  |  |  |  |  |  |  |  |  |  | 
8 | O=S(O)CCCCSSCc1ccccc1CSSCCCCS(=O)O | > 100 µM | 36.2 µM | > 100 µM | 20.6 µM | > 100 µM | 25.2 µM | 89.5 µM | 22.8 µM | 25.3 µM |  |  |  |  |  |  |  |  |  |  | 
9 | CC(=O)Oc1ccccc1C(=O)N=C1[Se]CCN1C(=O)c1ccccc1OC(C)=O | 2.8 µM | 8.47 µM | 1.88 µM | 4.46 µM | 2.06 µM |  | 2.7 µM | 1.51 µM | 2.84 µM | 1.46 µM |  |  | 0.708 µM | 0.546 µM | 0.637 µM | 0.379 µM |  | 0.637 µM | 1.04 µM | 0.355 µM
10 | N#CC(C#N)=c1[nH]c2cccc3c2-c2c(cccc2c3=C(C#N)C#N)[nH]1 | > 100 µM | > 100 µM | > 100 µM | > 100 µM | > 100 µM | > 100 µM | > 100 µM | > 100 µM | > 100 µM |  |  |  |  |  |  |  |  |  |  | 
11 | C#C[C@]1(O)CC[C@H]2[C@@H]3CC=C4c5sc(Nc6ccccc6)nc5CC[C@]4(C)[C@H]3CC[C@@]21C | 2.12 µM |  | 10.7 µM | 6.68 µM | 6.4 µM | 5.34 µM | 26.8 µM |  | 6.44 µM | 0.655 µM |  |  |  | 2.19 µM | 1.81 µM | 2.4 µM | 1.89 µM | 2.71 µM | 2.13 µM | 
12 | CC(=O)OCC1OC([S-])C(OC(C)=O)C(OC(C)=O)C1OC(C)=O.CC[PH+](CC)CC.CC[PH+](CC)CC.[Au].[Au] (stereo not drawn) | 0.401 µM | 0.0214 µM | 2.56 µM | 0.989 µM |  | 1.19 µM | 1.52 µM | 0.197 µM | 0.307 µM | 0.185 µM |  |  |  | 1.23 µM | 0.319 µM |  | 0.376 µM | 0.371 µM | 0.119 µM | 0.0434 µM
13 | CSC1(CC(=O)N(C)C)C(=O)Nc2ccccc21 (stereo not drawn) | > 100 µM |  | > 100 µM | > 100 µM | > 100 µM | > 100 µM |  |  | > 100 µM |  |  | > 100 µM |  |  |  |  |  |  |  | 
14 | CCOC(=O)c1[nH]c(COC(C)=O)c(CCCOC(C)=O)c1CCCOC(C)=O | > 100 µM | > 100 µM | > 100 µM | > 100 µM | > 100 µM | > 100 µM | > 100 µM | > 100 µM |  |  |  |  |  |  |  |  |  |  |  | 
15 | O=C(Nc1cccc(Cl)c1Cl)c1cccc(NC2=C(Cl)C(=O)N(Cc3ccccc3)C2=O)c1 | > 100 µM | 30.7 µM | > 100 µM | > 100 µM | 94.7 µM | 77.4 µM | 42 µM |  | > 100 µM | 49.8 µM | 15.7 µM | 84.5 µM | 10.5 µM | > 100 µM | 79.9 µM | 22.4 µM | 16.5 µM | 9.47 µM | 22.2 µM | 
16 | CCOC(=O)C1N(S(=O)(=O)c2ccc(C)cc2)CCC12C(c1ccc(OC)cc1)NC1CCCCC12 (stereo not drawn) | > 100 µM | > 100 µM | > 100 µM | > 100 µM | > 100 µM | > 100 µM | > 100 µM | > 100 µM | > 100 µM |  |  |  |  |  |  |  |  |  |  | 
17 | CCOC(=O)[C@H](CCCNC(=O)OC(C)(C)C)NCc1ccc(OC)c(OC)c1 | > 100 µM | > 100 µM | > 100 µM | > 100 µM |  | > 100 µM | > 100 µM | > 100 µM | > 100 µM |  |  |  |  |  |  |  |  |  |  | 
18 | O=C(CCC(=O)Nc1cccc(Cl)c1)CC(=O)c1ccc(Cl)cc1 | > 100 µM | > 100 µM | > 100 µM | > 100 µM | > 100 µM | > 100 µM | > 100 µM |  | > 100 µM |  |  |  |  |  |  |  |  |  |  | 
19 | COc1cc2c(cc1OC)C13CCN4CC5=CCOC6CC(=O)N2C1C6C5CC43O (stereo not drawn) | > 100 µM | > 100 µM |  | > 100 µM | > 100 µM | > 100 µM | > 100 µM |  | > 100 µM |  |  | > 100 µM |  |  |  |  |  |  |  | 
20 | NC1CCCC[C@H]1N.N[C@@H]1CCCC[C@@H]1N.O=C(P(=O)([O-])[O-])P(=O)([O-])[O-].[Pt+4].[Pt+4] | > 100 µM | > 100 µM | > 100 µM | > 100 µM | > 100 µM | > 100 µM | > 100 µM | > 100 µM | > 100 µM | > 100 µM |  |  | 18.3 µM | > 100 µM | 70.9 µM | 20 µM | > 100 µM | > 100 µM | > 100 µM | > 100 µM
21 | CC(C)(C)N1CC2(CCCCC2)C1=O | > 100 µM | > 100 µM | > 100 µM | > 100 µM | > 100 µM | > 100 µM | > 100 µM | > 100 µM | > 100 µM |  |  |  |  |  |  |  |  |  |  | 
22 | O=C(/C=C/c1ccccc1)/C=C/c1ccccc1 | 85.5 µM | 78.8 µM | > 100 µM | 35.1 µM | 65.5 µM | 51.3 µM |  | > 100 µM | 87.1 µM |  |  |  |  |  |  |  |  |  |  | 
23 | O=C1c2ccn(CCCCNC(CO)(CO)CO)c2C(=O)c2c1c(O)c1ccccc1c2O | 6.05 µM | 21 µM | 8.77 µM | 4.37 µM | 13.8 µM | 0.388 µM | 11.4 µM |  | 0.931 µM | 2.29 µM | 22.7 µM | 69.9 µM | 2.56 µM | 3.82 µM | 1.83 µM | 4.57 µM | 0.183 µM | 2.17 µM |  | 
24 | O/N=C\c1c(O)ccc2ccccc12 | > 100 µM | 54.9 µM | > 100 µM | > 100 µM | > 100 µM | 66.7 µM | > 100 µM | > 100 µM | > 100 µM |  |  |  |  |  |  |  |  |  |  | 
25 | Nc1c(C(=O)N/N=C/c2ccc(-c3ccc(Cl)cc3)o2)cnn1-c1ccnc2c(C(F)(F)F)cccc12 | > 100 µM | > 100 µM | > 100 µM | > 100 µM | > 100 µM | > 100 µM |  |  | > 100 µM | > 100 µM |  |  | > 100 µM | > 100 µM | 77.4 µM | > 100 µM | > 100 µM |  | > 100 µM | 
26 | O=C(CSc1nnc(-c2ccccc2NC(=O)C(F)(F)F)c(=O)[nH]1)NC(=O)Nc1ccccc1 | > 100 µM |  | > 100 µM | > 100 µM | > 100 µM | > 100 µM | > 100 µM | > 100 µM | > 100 µM |  |  |  |  |  |  |  |  |  |  | 
27 | NC(N)=N/N=C/c1cc(Cl)cc(Cl)c1O | > 100 µM | > 100 µM | > 100 µM | > 100 µM | > 100 µM | > 100 µM | > 100 µM | > 100 µM | > 100 µM |  |  |  |  |  |  |  |  |  |  | 
28 | CCCCCc1c(C)[nH]c(/C=C2\N=C(c3ccc[nH]3)C=C2CC)c1C | 0.0352 µM | 0.0814 µM | 0.0795 µM | 0.131 µM |  | 0.103 µM |  |  | 0.043 µM | < 0.01 µM | 0.0145 µM | 0.17 µM | 0.0151 µM | 0.0128 µM | < 0.01 µM |  | 0.0199 µM |  | 0.0158 µM | 
29 | N#CC(/C(=N/NC(=O)C(=O)NN)C(=O)NC12CC3CC(CC(C3)C1)C2)c1ccccc1 (stereo not drawn) | > 100 µM | > 100 µM | > 100 µM | > 100 µM | > 100 µM | > 100 µM | > 100 µM | > 100 µM | > 100 µM |  |  |  |  |  |  |  |  |  |  | 
